Inhibition data for 36 molecules are collected here from patent publication US6867320B2, “Substituted phenylalkanoic acid derivatives and use thereof” (Asahi Kasei Pharma Corporation, priority 2002, dated 2005).

This assay relates to PGE2 production from IL-1β-stimulated MG-63 cells. Nature of the assay: Suppressing action on PGE2 production from IL-1β-stimulated MG-63 cells. It is filed as cell-based. Conditions: Homo sapiens, IL-1β 1 ng/ml, 18 hours, read-out: PGE2 production suppression ratio. The source says:
1. Suppressing Action on PGE2 Production from IL-1β-Stimulated MG-63 Cells (1) Method for Measurement
An action of suppressing PGE2 production caused by interleukin (IL) 1β as an inflammatory stimulant was studied by the following method. Cells of MG-63, which is a human osteosarcoma cell line (purchased from Dainippon Pharmaceutical), were suspended in EMEM medium (GIBCO) containing 10% fetal bovine serum (BioFluid), and then inoculated to each well of 96-well culture plate at a density of 2×10^4 cells/well and cultured overnight. The medium was changed to EMEM medium containing 0.5% fetal bovine serum, and then a test compound was added with each well. Human interleukin-1β (ENDOGEN) was further added as an inflammatory stimulant at a final concentration of 1 ng/ml. The cells were further cultured for 18 hours. The culture supernatant was collected, and the PGE2 concentration in the culture supernatant was measured by using EIA kit (CAYMAN). By using a well which was not added with the stimulant as a negative control and a well which was added only with the stimulant as a positive control, suppression ratios on PGE2 production were calculated from produced amounts of PGE2 in the well added with the test compound using the following equation. PGE2 production suppression ratio=[1−(C−B)/(A−B)]×100 • A: PGE2 production amount of positive control • B: PGE2 production amount of negative control • C: PGE2 production amount in well added with test compound

Consider `O=C(O)CCc1ccc(OCC2CCCC2)c(-c2ccc3ccc(O)cc3c2)c1` [Compound 008, 3-[4-cyclopentylmethyloxy-3-(7-hydroxynaphthalen-2-yl)-phenyl]propionic acid], for which the inhibition at 0.4 µM is not below 50%.
Under `CN(C)c1ccc2cc(-c3cc(CCC(=O)O)ccc3OCC3CCCC3)ccc2c1` [Compound 018, 3-{4-cyclopentylmethyloxy-3-[6-(N,N-dimethylamino)naphthalen-2-yl]phenyl}propionic acid] stands not below 50%; under `NS(=O)(=O)Nc1ccc2cc(-c3cc(CCC(=O)O)ccc3OCC3CCCC3)ccc2c1` [Compound 020, 3-[4-cyclopentylmethyloxy-3-(6-sulfamoylaminonaphthalen-2-yl)phenyl]propionic acid], not below 50%; under `CS(=O)(=O)c1ccc2cc(-c3cc(CCC(=O)O)ccc3OCC3CCCC3)ccc2c1` [Compound 022, 3-[4-cyclopentylmethyloxy-3-(6-methanesulfonylnaphthalen-2-yl)phenyl]propionic acid], not below 50%.
Under `NS(=O)(=O)c1ccc2cc(-c3cc(CCC(=O)O)ccc3OCC3CCCC3)ccc2c1` [Compound 024, 3-[4-cyclopentylmethyloxy-3-(6-sulfamoylnaphthalen-2-yl)phenyl]propionic acid] stands not below 50%; under `CNS(=O)(=O)c1ccc2cc(-c3cc(CCC(=O)O)ccc3OCC3CCCC3)ccc2c1` [Compound 026, 3-{4-cyclopentylmethyloxy-3-[6-(N-methylsulfamoyl)naphthalen-2-yl]phenyl}propionic acid], not below 50%; under `CN(C)S(=O)(=O)c1ccc2cc(-c3cc(CCC(=O)O)ccc3OCC3CCCC3)ccc2c1` [Compound 028, 3-{4-cyclopentylmethyloxy-3-[6-(N,N-dimethylsulfamoyl)naphthalen-2-yl]phenyl}propionic acid], not below 50%.
As for `O=C(O)CCc1ccc(OCC2CCCCC2)c(-c2ccc3cc(C(=O)O)ccc3c2)c1` [Compound 029, 3-[3-(6-carboxynaphthalen-2-yl)-4-cyclohexylmethyloxyphenyl]propionic acid], the figure is not below 50%; as for `CCCCOc1ccc(CCC(=O)O)cc1-c1ccc2ccccc2c1` [Compound 037, 3-[4-butyloxy-3-(naphthalen-2-yl)phenyl]propionic acid], not below 50%.
For the molecule `CC(C)Oc1ccc(CCC(=O)O)cc1-c1ccc2ccccc2c1` [Compound 041, 3-[4-isopropyloxy-3-(naphthalen-2-yl)phenyl]propionic acid], the inhibition at 0.4 µM was not below 50%.
Under `O=C(O)CCc1ccc(OCCC2CCCCC2)c(-c2ccc3ccccc3c2)c1` [Compound 049, 3-[4-(2-cyclohexylethyloxy)-3-(naphthalen-2-yl)phenyl]propionic acid] stands not below 50%; under `O=C(O)CCc1ccc(OCc2ccco2)c(-c2ccc3ccccc3c2)c1` [Compound 058, 3-{4-[(furan-2-yl)methyloxy]-3-(naphthalen-2-yl)phenyl}propionic acid], not below 50%; under `O=C(O)CCc1ccc(OCc2cccnc2)c(-c2ccc3ccccc3c2)c1` [Compound 060, 3-{3-(naphthalen-2-yl)-4-[(pyridin-3-yl)methyloxy]phenyl}propionic acid], not below 50%.
As for `CCc1ccc(CCOc2ccc(CCC(=O)O)cc2-c2ccc3ccccc3c2)nc1` [Compound 062, 3-{4-[2-(5-ethylpyridin-2-yl)ethyloxy]-3-(naphthalen-2-yl)phenyl}propionic acid], the figure is not below 50%; as for `Cc1oc(-c2ccccc2)nc1CCOc1ccc(CCC(=O)O)cc1-c1ccc2ccccc2c1` [Compound 064, 3-{4-[2-(5-methyl-2-phenyloxazol-4-yl)ethyloxy]-3-(naphthalen-2-yl)phenyl}propionic acid], not below 50%; as for `COc1ccc2cc(-c3cc(CCC(=O)O)ccc3OCC3CCCCC3)ccc2c1` [Compound 068, 3-[4-cyclohexylmethyloxy-3-(6-methoxynaphthalen-2-yl)phenyl]propionic acid], not below 50%.
Under `O=C(O)CCc1ccc(OCC2CCCCC2)c(-c2cccc3ccccc23)c1` [Compound 070, 3-[4-cyclohexylmethyloxy-3-(naphthalen-1-yl)phenyl]propionic acid] stands not below 50%; under `O=C(O)CCc1ccc(OCC2CCCCC2)c(-c2ccc3cc(OCCO)ccc3c2)c1` [Compound 071, 3-{4-cyclohexylmethyloxy-3-[6-(2-hydroxyethyloxy)naphthalen-2-yl]phenyl}propionic acid], not below 50%; under `O=C(O)CCc1ccc(OCC2CCCCC2)c(-c2ccc3cc(OCC(=O)O)ccc3c2)c1` [Compound 072, 3-[3-(6-carboxymethyloxynaphthalen-2-yl)-4-cyclohexylmethyloxyphenyl]propionic acid], not below 50%.
Turning to `CN(C)C(=O)COc1ccc2cc(-c3cc(CCC(=O)O)ccc3OCC3CCCCC3)ccc2c1` [Compound 074, 3-{4-cyclohexylmethyloxy-3-[6-(N,N-dimethylcarbamoylmethyloxy)-naphthalen-2-yl]phenyl}propionic acid], the inhibition at 0.4 µM is not below 50%.
As for `CC(=O)Nc1ccc2cc(-c3cc(CCC(=O)O)ccc3OCC3CCCC3)ccc2c1` [Compound 077, 3-[3-(6-acetylaminonaphthalen-2-yl)-4-cyclopentylmethyloxy-phenyl]propionic acid], the figure is not below 50%; as for `CS(=O)(=O)Nc1ccc2cc(-c3cc(CCC(=O)O)ccc3OCC3CCCC3)ccc2c1` [Compound 085, 3-[4-cyclopentylmethyloxy-3-(6-methanesulfonylaminonaphthalen-2-yl)phenyl]propionic acid], not below 50%.
As for `O=C(O)CCc1ccc(OCC2CCCC2)c(-c2ccc3ccc(NC(=O)c4ccco4)cc3c2)c1` [Compound 090, 3-(4-cyclopentylmethyloxy-3-{7-[(furan-2-carbonyl)amino]naphthalen-2-yl}phenyl)propionic acid], the figure is not below 50%.
As for `O=C(O)CCc1cc(Cl)c(OCC2CCCC2)c(-c2ccc3ccccc3c2)c1` [Compound 092, 3-[3-chloro-4-cyclopentylmethyloxy-5-(naphthalen-2-yl)phenyl]propionic acid], the figure is not below 50%; as for `COC(=O)CCc1cc(N)c(OCC2CCCC2)c(-c2ccc3ccccc3c2)c1` [Compound 094, methyl 3-[3-amino-4-cyclopentylmethyloxy-5-(naphthalen-2-yl)phenyl]propionate], not below 50%.
For the molecule `O=C(O)Cc1ccc(OCC2CCCCC2)c(-c2ccc3ccccc3c2)c1` [Compound 096, 4-cyclohexylmethyloxy-3-(naphthalen-2-yl)phenylacetic acid], the inhibition at 0.4 µM is not below 50%.
Under `Cc1c[nH]c2ccc(-c3cc(CCC(=O)O)ccc3OCC3CCCC3)cc12` [Compound 112, 3-[4-cyclopentylmethyloxy-3-(3-methyl-1H-indol-5-yl)phenyl]propionic acid] stands not below 50%; under `O=C(O)CCc1ccc(OC2CCCC2)c(-c2cccc3[nH]ccc23)c1` [Compound 118, 3-[4-cyclopentyloxy-3-(1H-indol-4-yl)phenyl]propionic acid], not below 50%; under `O=C(O)CCc1ccc(OC2CCCCC2)c(-c2cccc3[nH]ccc23)c1` [Compound 120, 3-[4-cyclohexyloxy-3-(1H-indol-4-yl)phenyl]propionic acid], not below 50%.
As for `Cn1ccc2c(-c3cc(CCC(=O)O)ccc3OCC3CCCC3)cccc21` [Compound 122, 3-[4-cyclopentylmethyloxy-3-(1-methyl-1H-indol-4-yl)phenyl]propionic acid], the inhibition at 0.4 µM was not below 50%.
As for `Cn1ccc2c(-c3cc(CCC(=O)O)ccc3OC3CCCC3)cccc21` [Compound 124, 3-[4-cyclopentyloxy-3-(1-methyl-1H-indol-4-yl)phenyl]propionic acid], the figure is not below 50%; as for `O=C(O)CCc1ccc(OCC2CCCCC2)c(-c2ccc3cc[nH]c3c2)c1` [Compound 128, 3-[4-cyclohexylmethyloxy-3-(1H-indol-6-yl)phenyl]propionic acid], not below 50%.
Under `CCCCOc1ccc(CCC(=O)O)cc1-c1ccc2[nH]ccc2c1` [Compound 130, 3-[4-butyloxy-3-(1H-indol-5-yl)phenyl]propionic acid] stands not below 50%.
With `Cc1ccccc1COc1ccc(CCC(=O)O)cc1-c1ccc2[nH]ccc2c1` [Compound 134, 3-[3-(1H-indol-5-yl)-4-(2-methylphenylmethyloxy)phenyl]propionic acid], the inhibition at 0.4 µM is not below 50%.
Under `Cc1cccc(COc2ccc(CCC(=O)O)cc2-c2ccc3[nH]ccc3c2)c1` [Compound 136, 3-[3-(1H-indol-5-yl)-4-(3-methylphenylmethyloxy)phenyl]propionic acid] stands not below 50%; under `Cc1ccc(COc2ccc(CCC(=O)O)cc2-c2ccc3[nH]ccc3c2)cc1` [Compound 138, 3-[3-(1H-indol-5-yl)-4-(4-methylphenylmethyloxy)phenyl]propionic acid], not below 50%.
